Test results from paper PMC10672241, “New Cyclopiane Diterpenes and Polyketide Derivatives from Marine Sediment-Derived Fungus Penicillium antarcticum KMM 4670 and Their Biological Activities” (Marine Drugs, 2023).
Where two headings read alike, the source gives them in different places.

Assays:
[1] = test system: Escherichia coli VKPM (B-7935); test: Antimicrobial activity: E. coli growth (OD620, 96-well broth); type: cell-based
Protocol: (§1) The yeast-like fungi of Candida albicans KMM 455 and bacterial strains Staphylococcus aureus ATCC 21027 and Escherichia coli VKPM (B-7935) (Collection of Marine Microorganisms PIBOC FEB RAS) were cultured on solid medium Mueller Hinton broth with agar (16.0 g/L) in a Petri dish at 37 °C for 24 h.
(§2) The assays were performed in 96-well microplates in appropriate Mueller Hinton broth. Each well contained 90 µL of bacterial or of yeast-like fungi suspension (10^9 CFU/mL). Then, 10 µL of a compound diluted at concentrations from 1.5 µM to 100.0 µM using two-fold dilution were added (DMSO concentration <1%). Culture plates were incubated for 18 h at 37 °C, and the OD620 was measured using a Multiskan FS spectrophotometer (Thermo Scientific Inc., Beverly, MA, USA). The antibiotic gentamicin and the antifungal agent nitrofungin were used as positive controls at 1 mg/mL; 1% DMSO in PBS served as a negative control.

sortase A from S. aureus = biological target: T1, sortase A from S. aureus (Staphylococcus aureus, UniProt Q2FV99); test: Sortase A activity inhibition assay (SensoLyte 520 kit, cell-free); type: biochemical; conditions: for inhibition at 50 µM: read-out: inhibition of sortase A activity, 50 µM, after 10 min of incubation; for inhibition of sortase A activity: 50 µM, after 10 min of incubation
T1 construct: purchased AnaSpec AS-72229
T1 sequence (Q2FV99 whole entry): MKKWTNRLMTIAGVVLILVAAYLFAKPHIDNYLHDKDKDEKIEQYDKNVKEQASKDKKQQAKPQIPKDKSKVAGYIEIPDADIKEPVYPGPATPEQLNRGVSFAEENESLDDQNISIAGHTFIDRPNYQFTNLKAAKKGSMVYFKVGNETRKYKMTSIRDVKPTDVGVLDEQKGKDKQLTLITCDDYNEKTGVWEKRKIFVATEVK
Protocol: The enzymatic activity of sortase A from S. aureus was determined using SensoLyte 520 Sortase A Activity Assay Kit Fluorimetric (AnaSpec AS-72229, AnaSpec, San Jose, CA, USA) in accordance with the manufacturer’s instructions. […] DMSO at a concentration of 0.8% was used as a control. 4-(Hydroxymercuri)benzoic acid (PCMB) was used as sortase A enzyme activity inhibitor. Fluorescence was measured with a plate reader PHERAStar FS (BMG Labtech, Offenburg, Germany) for 60 min, with a time interval of 5 min. The data were processed with MARS Data Analysis v. 3.01R2 (BMG Labtech, Offenburg, Germany). The results were presented as relative fluorescent units (RFUs) and percentage of the control data, calculated using STATISTICA 10.0 software.

[2] = test system: Staphylococcus aureus ATCC 21027; test: Antimicrobial activity: S. aureus growth (OD620, 96-well broth); type: cell-based; conditions: for inhibition at 12.5 µM / inhibition at 100 µM: Staphylococcus aureus; for inhibition at 12.5 µM: ATCC21027, 12.5 µM; for inhibition at 100 µM: ATCC21027, 100 µM
Protocol: as §1, §2

[3] = H9c2 cell viability (MTT) assay; type: cell-based, rat; conditions: rat, H9c2 cardiomyocytes, 24 h, MTT
Protocol: (§3) The rat cardiomyocytes H9c2 cells were kindly provided by Prof. Dr. Gunhild von Amsberg from Martini-Klinik Prostate Cancer Center, University Hospital Hamburg-Eppendorf, Hamburg, Germany.
(§4) The H9c2 cells were cultured in DMEM medium (Biolot, St. Petersburg, Russia) containing 10% fetal bovine serum (Biolot, St. Petersburg, Russia) and 1% penicillin/streptomycin (Biolot, St. Petersburg, Russia) at 37 °C in a humidified atmosphere with 5% (v/v) CO2.
(§5) The H9c2 cells were seeded at concentrations of 3 × 10^3 cell/well, and the experiments were started after 24 h. The compounds at concentrations up to 100 µM were added into the wells for 24 h, and the viability of the cells was measured with an MTT (3-(4,5-dimethylthiazol-2-yl)-2,5-diphenyltetrazolium bromide) assay, which was performed according to the manufacturer’s instructions (Sigma-Aldrich, Munich, Germany). All compounds were dissolved with DMSO so that the final concentration of DMSO in the cell culture was not more than 1%. Moreover, DMSO was used as a control. The results were presented as a percent of the control data and calculated IC50.

H9c2 cardiomyocytes = test: H9c2 cell viability (MTT) assay; type: cell-based, rat; conditions: for Cell Viability: 24 h, MTT; for toxicity toward normal cardiomyocytes: at the concentrations in which they affected the growth of microorganisms
Protocol: as §3, §4, §5

[4] = test system: S. aureus biofilm formation; test: Crystal violet biofilm formation assay, S. aureus; type: cell-based, Staphylococcus aureus; conditions: for IC50: Staphylococcus aureus, read-out: half-maximal concentration (IC50) of the biofilm formation inhibition; for prevention of the biofilm formation of S. aureus: concentration not given
Protocol: (§6) The inhibition reducing biofilm formation and growth was assessed using the crystal violet biofilm assay as described. Overnight cultures of bacteria S. aureus and E. coli and yeast-like fungi C. albicans were inoculated into Mueller–Hinton broth at a concentration of 10^9 CFU/mL. A total of 90µL of this cell suspension was then dispensed into 96-well microtiter plates containing 10 µL of different concentrations of compounds 1–6. After 24 h growth at 37 °C, the plates were washed with PBS to remove unbound cells. Next, the wells were stained with 0.1% crystal violet solution for 10 min at 37 °C. At the completion of the incubation, plates were washed 3 times with PBS and dried. Then, the crystal violet dye from the biofilm was solubilized with 100 µL of ethanol. A total of 100 µL of this solution was then moved to a new microtiter plate for absorbance measurement at λ = 570 nm. The results were reported as percent inhibition normalized to the wild-type control.

Candida albicans KMM 455 = test: Antimicrobial activity: C. albicans growth (OD620, 96-well broth); type: cell-based; conditions: for inhibition at 12.5 µM: KMM455, 12.5 µM
Protocol: as §1, §2

Staphylococcus aureus [5] = test system: Staphylococcus aureus; parameters: method as in PMID 31226283; conditions: bacterial suspension 10^6 CFU per milliliter; cited from earlier work
Escherichia coli [6] = test: Literature antibacterial activity against Escherichia coli; type: cell-based; conditions: calculated from 50 μg/mL
Escherichia coli [7] = test system: Escherichia coli; parameters: method as in PMID 31226283; conditions: bacterial suspension 10^6 CFU per milliliter; cited from earlier work
[8] = test system: E. coli biofilm formation; test: Crystal violet biofilm formation assay, E. coli; type: cell-based, Escherichia coli
Protocol: as §6

Staphylococcus aureus [9] = test: Literature antibacterial activity against Staphylococcus aureus; type: cell-based; conditions: calculated from 100 μg/mL
[10] = test system: C. albicans biofilm formation; test: Crystal violet biofilm formation assay, C. albicans; type: cell-based, Candida albicans; conditions: for inhibition of C. albicans biofilm formation: concentrations from 12.5 to 100 µM
Protocol: as §6

[11] = in vivo assay; cited from earlier work
[12] = concentrations from 12.5 to 100 µM

CC12CC(=O)C(C)(C)C1C1CCC3(C)C(=O)C=CC(C)(O)C13C2 (stereo not shown) [Compound 1, 4-hydroxyleptosphin C]
inhibition of E. coli growth ([1]; 12.5 µM): not observed | inhibition at 100 µM ([1]; Escherichia coli, 100 µM): 35.9% | inhibition at 50 µM (sortase A from S. aureus): 28.2% | inhibition at 12.5 µM [2]: 15.3% | inhibition at 100 µM [2]: 29.3% | viability at 24 h, 1 µM [3]: 94.8 ± 5.9% | viability at 24 h, 10 µM [3]: 65.7 ± 9.4% | viability at 24 h, 100 µM [3]: 63.2 ± 0.5% | decrease in H9c2 cell viability (H9c2 cardiomyocytes; 10 µM): ~30% | decrease of H9c2 viability (H9c2 cardiomyocytes; 100 µM): ~30% | prevention of S. aureus biofilm formation ([4]; 12.5 µM): 15.9% | prevention of S. aureus biofilm formation ([4]; 100 µM): 34.5% | inhibition at 12.5 µM (Candida albicans KMM 455; Candida albicans): 30.4%

CC1C=CC(=O)C2(C)CCC3C4C(C)(CC(O)C4(C)C)CC132 (stereo not drawn) [Compound 2, 13-epi-conidiogenone F]
inhibition of E. coli growth ([1]; 12.5 µM): not observed | inhibition at 100 µM ([1]; Escherichia coli, 100 µM): 27.3% | inhibition of sortase A activity (sortase A from S. aureus): 36.9% | inhibition of S. aureus growth ([2]; 12.5 µM): no effect | inhibition at 100 µM [2]: 19.1% | viability at 24 h, 1 µM [3]: 98.1 ± 1.9% | viability at 24 h, 10 µM [3]: 107 ± 7.8% | decrease of H9c2 viability (H9c2 cardiomyocytes; 100 µM): ~30% | Cell Viability (H9c2 cardiomyocytes; 100 µM): 67.3 ± 3.1% | prevention of S. aureus biofilm formation ([4]; 12.5 µM): 37.9% | prevention of S. aureus biofilm formation ([4]; 100 µM): 52.6% | IC50 [4]: 76.1 µM | inhibition at 12.5 µM (Candida albicans KMM 455; Candida albicans): 27.9%

CC1C=CC(=O)C2(C)CCC3C4C(C)(CC(O)C4(C)C)CC132 (stereo not shown) [Compound 3, conidiogenone F]
inhibition of E. coli growth ([1]; 100 µM): 36.4% | inhibition at 12.5 µM ([1]; Escherichia coli, 12.5 µM): 24.3% | concentration of antibacterial activity against Staphylococcus aureus (Staphylococcus aureus [5]): > 100 µg/mL | concentration at which activity was recorded (E. coli) (Escherichia coli [6]): 166 µM | inhibition of sortase A activity (sortase A from S. aureus): 13.1% | inhibition of S. aureus growth ([2]; 12.5 µM): did not influence | inhibition of S. aureus growth ([2]; 100 µM): 17.6% | Cell Viability (H9c2 cardiomyocytes; 1 µM): 103.3 ± 3.2% | Cell Viability (H9c2 cardiomyocytes; 10 µM): 92.9 ± 2.5% | Cell Viability (H9c2 cardiomyocytes; 100 µM): 109.7 ± 9.2% | concentration of antibacterial activity against Escherichia coli (Escherichia coli [7]): 50 µg/mL | prevention of S. aureus biofilm formation ([4]; only at concentrations of 50 µM and 100 µM): 10–15% | inhibition of C. albicans growth (Candida albicans KMM 455; 12.5 µM): 26.5%

CC1C=CC(=O)C2(C)CCC3C4C(C)(CC(=O)C4(C)C)CC132 (stereo not shown) [Compound 4, leptosphin C]
inhibition at 12.5 µM ([1]; Escherichia coli, 12.5 µM): 7.2% | inhibition at 100 µM ([1]; Escherichia coli, 100 µM): 41.7% | concentration of antibacterial activity against Staphylococcus aureus (Staphylococcus aureus [5]): 100 µg/mL | effect on biofilm formation of E. coli (in words) [8]: affect the biofilm formation | prevention of E. coli biofilm formation ([8]; concentrations of 25–100 µM): 30–40% | inhibition at 50 µM (sortase A from S. aureus): 20% | inhibition at 12.5 µM [2]: 10.3% | inhibition at 100 µM [2]: 42.4% | viability at 24 h, 1 µM [3]: 107 ± 2.9% | viability at 24 h, 10 µM [3]: 102 ± 4.6% | viability at 24 h, 100 µM [3]: 92.3 ± 1.9% | concentration of antibacterial activity against Escherichia coli (Escherichia coli [7]): > 100 µg/mL | prevention of S. aureus biofilm formation ([4]; 100 µM): 54.5% | IC50 ([4]; S. aureus biofilm): 85.5 µM | inhibition of C. albicans growth (Candida albicans KMM 455; [12]): 38.7–44.8% | concentration at which activity was recorded (S. aureus) (Staphylococcus aureus [9]): 333 µM | effect on biofilm formation by C. albicans (in words) [10]: affected the biofilm formation | inhibition of C. albicans biofilm formation [10]: 30.6–36.4%

C[C@H]1CCC[C@H](C[C@@H](O)CC(=O)O)O1 [Compound 5, antaketide A]
inhibition at 12.5 µM ([1]; Escherichia coli, 12.5 µM): 12.5% | inhibition at 100 µM ([1]; Escherichia coli, 100 µM): 40.9% | effect on biofilm formation of E. coli (in words) [8]: affect the biofilm formation | prevention of E. coli biofilm formation ([8]; concentrations of 12.5–100 µM, respectively): 21–45% | inhibition at 50 µM (sortase A from S. aureus): 25.5% | inhibition of S. aureus growth ([2]; 12.5 µM): did not show any influence | inhibition at 100 µM [2]: 48.5% | viability at 24 h, 1 µM [3]: 94.4 ± 3.1% | viability at 24 h, 10 µM [3]: 88.5 ± 3.1% | viability at 24 h, 100 µM [3]: 74.1 ± 4.9% | toxicity toward normal cardiomyocytes (H9c2 cardiomyocytes): significant toxicity | prevention of the biofilm formation of S. aureus [4]: 30–40% | inhibition of C. albicans growth (Candida albicans KMM 455; [12]): 36.2–48.4% | inhibition of C. albicans biofilm formation [10]: did not affect

C[C@H]1CCC[C@H](CC(=O)O)O1 [Compound 6, 2-((2R,6S)-6-methyltetrahydro-2H-pyran-2-yl)acetic acid]
inhibition at 12.5 µM ([1]; Escherichia coli, 12.5 µM): 27.7% | inhibition at 100 µM ([1]; Escherichia coli, 100 µM): 56.9% | IC50 ([1]; Escherichia coli, read-out: IC50 of E. coli growth inhibition): 84.9 µM | inhibition at 50 µM (sortase A from S. aureus): 16.8% | inhibition at 12.5 µM [2]: 25.6% | inhibition at 100 µM [2]: 46.5% | viability at 24 h, 1 µM [3]: 98.1 ± 1.6% | viability at 24 h, 10 µM [3]: 80.9 ± 2.9% | viability at 24 h, 100 µM [3]: 54.6 ± 2.1% | toxicity toward normal cardiomyocytes (H9c2 cardiomyocytes): significant toxicity | prevention of the biofilm formation of S. aureus [4]: 30–40% | IC50 (Candida albicans KMM 455; Candida albicans, KMM455): 89.9 µM | inhibition of C. albicans growth (Candida albicans KMM 455; [12]): 34.7-52.1% | effect on biofilm formation by C. albicans (in words) [10]: affected the biofilm formation | inhibition of C. albicans biofilm formation [10]: 14.7–23.1%

C[C@H]1CCC[C@H](C[C@H]2Cc3cc(O)cc(O)c3C(=O)O2)O1 [Compound 7, cladosporin]
clearance rate in the body [11]: high | oral bioavailability [11]: poor
